Earlier results as cited in US20020052320A1, “Sustained peptide-release formulation” (Peptech Limited, priority 1996, published 2002).

Key:
[1] = system: advanced prostatic cancer; settings: monthly subcutaneous injections
prostate cancer in rats = settings: controlled dose over 30 days vs equivalent or double doses of free peptide

| Structure (SMILES) | efficacy compared with orchiectomy [1] | tolerability [1] | suppression of prostate tumour weight, microencapsulated form vs daily subcutaneous free peptide (prostate cancer in rats) | suppression of serum testosterone levels, microencapsulated form vs daily subcutaneous free peptide (prostate cancer in rats) |
| --- | --- | --- | --- | --- |
| CC(C)C[C@H](NC(=O)[C@@H](COC(C)(C)C)NC(=O)[C@H](Cc1ccc(O)cc1)NC(=O)[C@H](CO)NC(=O)[C@H](Cc1c[nH]c2ccccc12)NC(=O)[C@H](Cc1cnc[nH]1)NC(=O)[C@@H]1CCC(=O)N1)C(=O)N[C@@H](CCCNC(=N)N)C(=O)N1CCC[C@H]1C(=O)NNC(N)=O [goserelin, 3-[5-oxo-L-prolyl-L-tryptophyl-L-seryl-L-tyrosyl-(3-O-tert-butyl)-D-seryl-L-1eucyl-L-arginyl-L-prolyl]cabazamide acetate] | as effective as orchiectomy | well tolerated | – | – |
| CC(C)C[C@H](NC(=O)[C@@H](Cc1c[nH]c2ccccc12)NC(=O)[C@H](Cc1ccc(O)cc1)NC(=O)[C@H](CO)NC(=O)[C@H](Cc1c[nH]c2ccccc12)NC(=O)[C@H](Cc1c[nH]cn1)NC(=O)[C@@H]1CCC(=O)N1)C(=O)N[C@@H](CCCNC(=N)N)C(=O)N1CCC[C@H]1C(=O)NCC(N)=O [triptorelin, 5-oxo-L-prolyl-L-histidyl-L-tryptophyl-L-seryl-L-tyrosyl-D-tryptophyl-L-leucyl-L-arginyl-L-prolylglycinamide] | – | – | more effective | more effective |
